Experimental findings from patent US20240174727A1, “LONG-ACTING NATRIURETIC PEPTIDES AND USES THEREOF” (Eli Lilly and Company, priority 2022, published 2024) are described below.

The target in the test is T1, human NPRA (Homo sapiens, UniProt P16066).
T1 construct: Full-Length cDNA Cloning and Generation of Cell Lines Overexpressing Natriuretic Peptide Receptors (NPRs); expressed in transfected cells; host or cells: Jump-in T-Rex HEK293 cells, pJTI R4 CMV-TO MCS pA vector, tetracycline induction
T1 sequence (P16066 33-1061): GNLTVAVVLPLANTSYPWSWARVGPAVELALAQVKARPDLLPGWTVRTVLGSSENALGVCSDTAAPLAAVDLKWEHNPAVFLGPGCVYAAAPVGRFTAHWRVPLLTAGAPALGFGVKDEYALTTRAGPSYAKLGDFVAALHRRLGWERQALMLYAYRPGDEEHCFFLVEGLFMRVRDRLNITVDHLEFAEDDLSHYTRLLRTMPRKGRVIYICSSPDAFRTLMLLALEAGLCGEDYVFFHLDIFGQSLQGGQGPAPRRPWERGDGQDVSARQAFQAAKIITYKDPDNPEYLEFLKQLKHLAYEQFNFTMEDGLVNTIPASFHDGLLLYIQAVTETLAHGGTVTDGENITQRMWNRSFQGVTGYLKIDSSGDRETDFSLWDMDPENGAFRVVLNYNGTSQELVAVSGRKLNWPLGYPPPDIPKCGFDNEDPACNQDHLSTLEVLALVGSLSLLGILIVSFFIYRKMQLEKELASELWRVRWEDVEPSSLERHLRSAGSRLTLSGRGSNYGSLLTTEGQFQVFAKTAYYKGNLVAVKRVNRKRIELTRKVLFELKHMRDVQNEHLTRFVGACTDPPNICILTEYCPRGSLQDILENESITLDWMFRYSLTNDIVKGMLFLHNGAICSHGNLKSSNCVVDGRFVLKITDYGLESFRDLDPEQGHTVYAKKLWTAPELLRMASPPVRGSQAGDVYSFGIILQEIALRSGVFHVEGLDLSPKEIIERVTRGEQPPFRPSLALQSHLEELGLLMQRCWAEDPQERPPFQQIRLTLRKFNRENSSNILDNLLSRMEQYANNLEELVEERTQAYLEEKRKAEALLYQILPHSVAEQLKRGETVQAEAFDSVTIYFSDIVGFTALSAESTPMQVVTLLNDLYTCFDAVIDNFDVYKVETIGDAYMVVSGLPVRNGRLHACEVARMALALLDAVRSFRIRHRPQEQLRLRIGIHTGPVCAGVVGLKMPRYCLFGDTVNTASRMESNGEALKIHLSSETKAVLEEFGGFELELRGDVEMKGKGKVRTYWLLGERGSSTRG
The experiment in a line: Human NPRA cGMP activity assay (HTRF) in HEK293 cells overexpressing NPRA. It is filed as cell-based. The protocol: All sequences were verified by full-length sequencing performed by ACGT DNA Sequencing Services (Wheeling, IL). The target cDNA was cloned into pJTI R4 CMV-TO MCS pA vector and then co-transfected with pJT1R4 Int vector into Jump-in™ T-Rex™ HEK293 cells for mammalian inducible expression using Jump-in™ T-Rex™ HEK293 kit and Lipofectamine LTX and Plus Reagent following manufacturer's protocols, as briefly described below.
Jump-in™ T-Rex™ HEK293 cells were plated in a BioCOAT® poly-D-lysine coated 6-well plate (Becton Dickinson, cat no. 354413) at 1 million cells/well in 2 mL culture medium and incubated for 18 h at 37° C. and 5% CO2 to 50-70% confluence. A cDNA mix was made in a 50 mL tube by adding 1.5 μg target cDNA, 1.5 μg pJT1R4 Int vector, 3 μL Plus Reagent, and 300 μL Opti-MEM I sequentially into the tube. A reagent mix was made in a separate 50 mL tube by adding 7.5 μL Lipofectamine LTX into 300 μL Opti-MEM I. The mixtures were incubated for 5 min at room temperature. The cDNA mix was then transferred into the reagent mix, mixed well, and incubated for additional 30 min at room temperature. A 500 μL of cDNA/Lipofectamine complex was then transferred to the wells of the cell plate in which the culture medium was changed to 2 mL of transfection medium containing DMEM with 4.5 g/L D-glucose supplemented with 10% FBS-HI and 20 mM HEPES. Transfected cells were cultured for 48 h in an incubator at 37° C. and 5% CO2. A subclone or pool from each overexpressing cell line was maintained in culture medium with the addition of 2 mg/mL G418 sulfate for the clone selection based on its built-in resistance to G418 sulfate for at least 3 weeks with medium changed every 2-3 days.
NPRs were overexpressed in T-Rex™ HEK293 cells following the induction with 300 ng/mL tetracycline in culture medium for 48 h. Induced cell lines in an exponential growth phase were treated with 0.05% trypsin-EDTA for a few seconds at room temperature, harvested in cell medium containing FBS to neutralize the trypsin, counted, and cryopreserved at the density of 2 million cells/mL in cell preservation solution containing FBS-HI with 5% DMSO. Cryopreserved cells were stored at −80° C. for a few days prior to transferring to a liquid nitrogen tank. Induced cell lines were then used for suspension assays to measure the activity of polypeptides to stimulate cGMP production in cGMP assays or for the preparation of cell membranes to measure the binding activity of polypeptides in competitive radioligand binding assays, as described below.
Test polypeptides were added starting at 10 μM concentration and at 10-fold decreasing concentrations to obtain 8-point concentration-response curves (i.e., 10 μM to 1 pM). The quantity of cGMP generated was detected using HTRF® technology and normalized to maximum amount produced by 100 nM amidated rat ANP and the minimum amount produced by assay buffer. Detailed steps are outlined below.
Stock solutions of test polypeptides (2 mM) dissolved in DMSO were first diluted 100-fold in assay buffer containing HBSS with Ca^2+ and Mg^2+, 5 mM HEPES, 0.5 mM IBMX, and 0.1% BSA or 0.1% casein (pH 7.4). The polypeptides were further serially diluted in 1:10 dilution steps in assay buffer containing 0.1% BSA or 0.1% casein to generate 8-point 2× working stock solutions ranging from 20 μM to […].
A 10 μL cell suspension containing 4000 cells was plated in Costar® half-area white opaque 96-well plates (Corning, cat no. 3693). Then 10 μL of assay buffer (basal activity), 200 nM of amidated rat ANP (maximum activity) or 2× working stock solutions of test polypeptides were transferred into the plate. Final concentration of DMSO in each well was 0.5%. The plate was shaken for 15 sec and then incubated for 40 min at room temperature.
The cGMP generated was measured using cGMP kit following the manufacturer's directions, as described below.

The mark [1] stands for this setting: cGMP Assay (EC50, pM) w/Casein hNPRA, assay buffer with 0.1% casein.
The mark [2] stands for this setting: assay buffer with 0.1% casein, read-out: cGMP Assay (EC50, pM) w/Casein hNPRA.

Like-named read-outs stand apart in the source and are kept apart here. Numbered stars: 1 amine (or outer) side, 2 acyl side, 3 side chain; on linkers, the order of the positions; unused ones are H or OH. Bridge positions count the residues as written; N and C are the ends. Square brackets hold non-standard residues; d marks the D form. Peptide text beside a SMILES is read from it. * marks the point of attachment. C20 diacid = O=C(O)CCCCCCCCCCCCCCCCCCC(=O)*; γGlu = O=C(O)[C@H](CCC(=O)[*:2])N[*:1]; 4Pal = N[C@@H](Cc1ccncc1)C(=O)O; Aib = CC(C)(N)C(=O)O; CH2 = C([*:1])[*:2]; βAla = NCCC(=O)O

The compound `CC[C@H](C)[C@@H]1NC(=O)[C@H](CCCNC(=N)N)NC(=O)[C@H](CC(=O)O)NC(=O)[C@H]([C@@H](C)CC)NC(=O)[C@H](CCCNC(=N)N)NC(=O)[C@H](CCCCN)NC(=O)CNC(=O)[C@H](Cc2ccccc2)NC(=O)[C@@H](NC(=O)[C@H](CO)NC(=O)[C@H](CO)NC(=O)[C@H](CCCNC(=N)N)NC(=O)[C@@H]2CCCN2C(=O)[C@H](CCCCN)NC(=O)[C@H](CCC(=O)O)NC(=O)COCCOCCNC(=O)COCCOCCNC(=O)COCCOCCNC(=O)COCCOCCNC(=O)COCCOCCNC(=O)COCCOCCNC(=O)COCCOCCNC(=O)COCCOCCNC(=O)CNC(=O)[C@H](CCCCN)NC(=O)[C@H](CCC(=O)O)NC(=O)[C@H](CCCCN)NC(=O)[C@H](CCC(=O)O)NC(=O)[C@H](CCCCN)NC(=O)[C@H](CCC(=O)O)NC(=O)CC[C@H](NC(=O)CCCCCCCCCCCCCCCCCCC(=O)O)C(=O)O)CSCSC[C@@H](C(=O)N2CCC[C@H]2C(=O)N[C@@H](CO)C(=O)N[C@@H](Cc2ccccc2)C(=O)N[C@@H](CCCNC(=N)N)C(=O)N[C@@H](Cc2c[nH]cn2)C(=O)N[C@@H](CO)C(=O)NCC(=O)N[C@@H](CO)C(=O)N2CCC[C@H]2C(=O)N[C@@H](CO)C(=O)N[C@@H](CO)C(=O)NCC(=O)N[C@@H](C)C(=O)N2CCC[C@H]2C(=O)N2CCC[C@H]2C(=O)N2CCC[C@H]2C(=O)N[C@@H](CO)C(=O)NCC(N)=O)NC(=O)CNC(=O)[C@H](CC(C)C)NC(=O)CNC(=O)[C@H](CO)NC(=O)[C@H](Cc2ccc(O)cc2)NC(=O)[C@H](Cc2c[nH]cn2)NC(=O)CNC1=O` [Example 126] displayed an EC50 under setting [1] of 1090 pM.

On to `CC[C@H](C)[C@@H]1NC(=O)[C@H](CCCNC(=N)N)NC(=O)[C@H](CC(=O)O)NC(=O)[C@H]([C@@H](C)CC)NC(=O)[C@H](CCCNC(=N)N)NC(=O)CNC(=O)[C@H](Cc2c[nH]cn2)NC(=O)[C@H](Cc2ccccc2)NC(=O)[C@@H](NC(=O)[C@H](CO)NC(=O)[C@H](CO)NC(=O)[C@H](CCCNC(=N)N)NC(=O)[C@H](CCCNC(=N)N)NC(=O)[C@H](Cc2c[nH]cn2)NC(=O)[C@H](CO)NC(=O)CNC(=O)[C@H](CCCCN)NC(=O)[C@H](CCC(=O)O)NC(=O)[C@H](CCCCN)NC(=O)[C@H](CCC(=O)O)NC(=O)[C@H](CCCCN)NC(=O)[C@H](CCC(=O)O)NC(=O)CC[C@H](NC(=O)CCCCCCCCCCCCCCCCCCC(=O)O)C(=O)O)CSSC[C@@H](C(=O)N[C@@H](CC(N)=O)C(=O)N[C@@H](CO)C(=O)N[C@@H](Cc2ccccc2)C(=O)N[C@@H](CCCNC(=N)N)C(=O)N[C@@H](Cc2c[nH]cn2)C(N)=O)NC(=O)CNC(=O)[C@H](CC(C)C)NC(=O)CNC(=O)[C@H](CO)NC(=O)[C@H](CCC(N)=O)NC(=O)[C@H](C)NC(=O)[C@H](Cc2c[nH]cn2)NC1=O` [Example 16] ({C20 diacid-γGlu}-EKEKEKGSHRRSSCFHGRIDRIHAQSGLGCNSFRH-NH2; disulfide 14-30), for which, under setting [2], the EC50 is 807 pM.

For “{C20 diacid-γGlu}-EKEKEKGEKGRSSCFGGRIDRIGHYSGLGCPSLRHGGPSSGAPPPS-NH2 (disulfide 14-30) [Example 51]”, under setting [1], the EC50 was 361 pM.

“{C20 diacid-γGlu}-EKEKEKGS[4Pal]RRSSCFGGRIDRIGHQSGLGCPSFRHGGPPS[Aib]KPPPK-NH2 (linker 14-30 via CH2) [Example 68]”: under “assay buffer with 0.1% BSA, read-out: cGMP Assay (EC50, pM) w/BSA hNPRA”, the EC50 was found to be 96800 pM.

As for `CC[C@H](C)[C@@H]1NC(=O)[C@H](CCCNC(=N)N)NC(=O)[C@H](CC(=O)O)NC(=O)[C@H]([C@@H](C)CC)NC(=O)[C@H](CCCNC(=N)N)NC(=O)CNC(=O)CNC(=O)[C@H](Cc2ccccc2)NC(=O)[C@@H](NC(=O)[C@H](CO)NC(=O)[C@H](CO)NC(=O)[C@H](CCCNC(=N)N)NC(=O)[C@H](CCCNC(=N)N)NC(=O)[C@H](Cc2c[nH]cn2)NC(=O)[C@H](CO)NC(=O)CNC(=O)[C@H](CCCCN)NC(=O)[C@H](CCC(=O)O)NC(=O)[C@H](CCCCN)NC(=O)[C@H](CCC(=O)O)NC(=O)[C@H](CCCCN)NC(=O)[C@H](CCC(=O)O)NC(=O)CC[C@H](NC(=O)CCCCCCCCCCCCCCCCCCC(=O)O)C(=O)O)CSSC[C@@H](C(=O)N2CCC[C@H]2C(=O)N[C@@H](CO)C(=O)N[C@@H](Cc2ccccc2)C(=O)N[C@@H](CCCNC(=N)N)C(=O)N[C@@H](Cc2c[nH]cn2)C(N)=O)NC(=O)CNC(=O)[C@H](CC(C)C)NC(=O)CNC(=O)[C@H](CO)NC(=O)[C@H](CCC(N)=O)NC(=O)[C@H](C)NC(=O)CNC1=O` [Example 18] ({C20 diacid-γGlu}-EKEKEKGSHRRSSCFGGRIDRIGAQSGLGCPSFRH-NH2; disulfide 14-30), the EC50 under setting [2] is 460 pM.

For the compound “{C20 diacid-γGlu}-EKEKEKGEK[βAla]RSSCFGGRIDRIGHYSGLGCPSLRHGGPSSGAPPPS-NH2 (linker 14-30 via CH2) [Example 63]”, the EC50 under setting [1] was 1090 pM.
